Measurements reported in paper PMC11839852, “Preclinical comparison of (radio)lanthanides using mass spectrometry and nuclear imaging techniques: biodistribution of lanthanide-based tumor-targeting agents and lanthanides in ionic form” (European Journal of Nuclear Medicine and Molecular Imaging, 2024).
Like-named read-outs stand apart in the source and are kept apart here. Marks after values point to notes of the source that are not given here.

Tested on: PC-3 PIP/flu tumor-bearing mice
Settings: Ln-PSMA-617; for Tissue uptake: Blood / Tissue uptake: Bone / Tissue uptake: Heart / Tissue uptake: Intestines / Tissue uptake: Kidneys / Tissue uptake: Liver / Tissue uptake: Lung / Tissue uptake: Muscle / Tissue uptake: Salivary glands / Tissue uptake: Spleen / Tissue uptake: Stomach: PC-3 PIP/flu tumor-bearing mice; for Tissue uptake: PC-3 flu tumor: PSMA-negative xenograft; for Tissue uptake: PC-3 PIP tumor: PSMA-positive xenograft; for PC-3 PIP tumor-to-background organ ratios: Tumor-to-blood / PC-3 PIP tumor-to-background organ ratios: Tumor-to-liver: estimated ratios (organ <0.5% ID/g)

Structure (SMILES) | PC-3 PIP tumor-to-background organ ratios: Tumor-to-kidney (1 h p.i.) | Tissue uptake: Blood (1 h p.i.) [% ID/g] | Tissue uptake: Bone (1 h p.i.) [% ID/g] | Tissue uptake: Heart (1 h p.i.) [% ID/g] | Tissue uptake: Intestines (1 h p.i.) [% ID/g] | Tissue uptake: Kidneys (1 h p.i.) [% ID/g] | Tissue uptake: Liver (1 h p.i.) [% ID/g] | Tissue uptake: Lung (1 h p.i.) [% ID/g] | Tissue uptake: Muscle (1 h p.i.) [% ID/g] | Tissue uptake: Salivary glands (1 h p.i.) [% ID/g] | Tissue uptake: Spleen (1 h p.i.) [% ID/g] | Tissue uptake: Stomach (1 h p.i.) [% ID/g] | Tissue uptake: PC-3 flu tumor (1 h p.i.) [% ID/g] | Tissue uptake: PC-3 PIP tumor (1 h p.i.) [% ID/g] | PC-3 PIP tumor-to-background organ ratios: Tumor-to-blood (1 h p.i.) | PC-3 PIP tumor-to-background organ ratios: Tumor-to-liver (1 h p.i.) | PC-3 PIP tumor-to-background organ ratios: Tumor-to-kidney (4 h p.i.) | Tissue uptake: Blood (4 h p.i.) [% ID/g] | Tissue uptake: Bone (4 h p.i.) [% ID/g] | Tissue uptake: Heart (4 h p.i.) [% ID/g] | other results
O=C([O-])CN1CCN(CC(=O)[O-])CCN(CC(=O)NC[C@H]2CC[C@H](C(=O)N[C@@H](Cc3ccc4ccccc4c3)C(=O)NCCCC[C@H](NC(=O)N[C@@H](CCC(=O)O)C(=O)O)C(=O)O)CC2)CCN(CC(=O)[O-])CC1.[153Eu+3] [[^153Eu]Eu-PSMA-617] | 3.3 ± 1.1 | <0.5 | <0.5 | 0.52 ± 0.42 | <0.5 | 8.1 ± 3.5 | <0.5 | <0.5 | <0.5 | <0.5 | 0.51 ± 0.17 | <0.5 | <0.5 | 24 ± 3 | >50^* | >50^* | 23 ± 3 | <0.5 | <0.5 | <0.5 | Tissue uptake: Intestines (4 h p.i.): <0.5 % ID/g; Tissue uptake: Kidneys (4 h p.i.): 1.1 ± 0.3 % ID/g; Tissue uptake: Liver (4 h p.i.): <0.5 % ID/g; Tissue uptake: Lung (4 h p.i.): <0.5 % ID/g; Tissue uptake: Muscle (4 h p.i.): <0.5 % ID/g; Tissue uptake: Salivary glands (4 h p.i.): <0.5 % ID/g; Tissue uptake: Spleen (4 h p.i.): <0.5 % ID/g; Tissue uptake: Stomach (4 h p.i.): <0.5 % ID/g; Tissue uptake: PC-3 flu tumor (4 h p.i.): <0.5 % ID/g; Tissue uptake: PC-3 PIP tumor (4 h p.i.): 23 ± 3 % ID/g; PC-3 PIP tumor-to-background organ ratios: Tumor-to-blood (4 h p.i.): >46^*; PC-3 PIP tumor-to-background organ ratios: Tumor-to-liver (4 h p.i.): >46^*
O=C([O-])CN1CCN(CC(=O)[O-])CCN(CC(=O)NCC2CCC(C(=O)NC(Cc3ccc4ccccc4c3)C(=O)NCCCCC(NC(=O)NC(CCC(=O)O)C(=O)O)C(=O)O)CC2)CCN(CC(=O)[O-])CC1.[Tb+3] (stereo not shown) [[^159Tb]Tb-PSMA-617] | 3.3 ± 1.0 | <0.5 | <0.5 | <0.5 | <0.5 | 8.4 ± 3.5 | <0.5 | <0.5 | <0.5 | <0.5 | <0.5 | <0.5 | <0.5 | 25 ± 3 | >51^* | >51^* | 24 ± 3 | <0.5 | <0.5 | <0.5 | Tissue uptake: Intestines (4 h p.i.): <0.5 % ID/g; Tissue uptake: Kidneys (4 h p.i.): 1.0 ± 0.2 % ID/g; Tissue uptake: Liver (4 h p.i.): <0.5 % ID/g; Tissue uptake: Lung (4 h p.i.): <0.5 % ID/g; Tissue uptake: Muscle (4 h p.i.): <0.5 % ID/g; Tissue uptake: Salivary glands (4 h p.i.): <0.5 % ID/g; Tissue uptake: Spleen (4 h p.i.): <0.5 % ID/g; Tissue uptake: Stomach (4 h p.i.): <0.5 % ID/g; Tissue uptake: PC-3 flu tumor (4 h p.i.): <0.5 % ID/g; Tissue uptake: PC-3 PIP tumor (4 h p.i.): 23 ± 3 % ID/g; PC-3 PIP tumor-to-background organ ratios: Tumor-to-blood (4 h p.i.): >46^*; PC-3 PIP tumor-to-background organ ratios: Tumor-to-liver (4 h p.i.): >46^*
